According to patent US6737256B2, “Overcoming DAPA aminotransferase bottlenecks in biotin vitamers biosynthesis” (Roche Vitamins Inc., priority 1997, dated 2004):
Like-named read-outs stand apart in the source and are kept apart here.

Experiments:
[1] = biological target: T1, B. subtilis DAPA aminotransferase (Bacillus subtilis, UniProt P53555); assay type: biochemical; conditions: for DAPA aminotransferase specfic activity: compound added to extract of BI611; for function as amino donor with the B. subtilis enzyme / stimulation of DAPA aminotransferase activity: result in words; for stimulation of DAPA aminotransferase activity: dialyzed BI611 extract
T1 construct: A cell free extract prepared from a B. subtilis strain deleted for the bio operon but containing multiple copies (4-6) of the B. subtilis bioA gene; made in house; host or cells: B. subtilis BI611 (Δbio:cat, bpr:[P26bioA]4-6), cell-free extract (dialyzed for A1, crude for A2)
T1 sequence (P53555 1-448): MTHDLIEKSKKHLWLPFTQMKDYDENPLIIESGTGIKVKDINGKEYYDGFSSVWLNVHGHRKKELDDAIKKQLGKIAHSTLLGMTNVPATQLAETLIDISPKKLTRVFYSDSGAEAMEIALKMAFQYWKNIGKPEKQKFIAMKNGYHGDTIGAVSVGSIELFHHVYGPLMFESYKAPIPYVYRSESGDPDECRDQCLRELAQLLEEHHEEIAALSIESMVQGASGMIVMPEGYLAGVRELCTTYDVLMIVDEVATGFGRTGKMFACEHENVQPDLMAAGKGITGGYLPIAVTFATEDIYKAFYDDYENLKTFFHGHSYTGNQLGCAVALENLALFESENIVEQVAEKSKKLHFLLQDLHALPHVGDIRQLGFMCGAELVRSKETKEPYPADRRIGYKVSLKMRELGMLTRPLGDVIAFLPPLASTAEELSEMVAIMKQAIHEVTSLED
Protocol: The assay for DAPA aminotransferase is described by Eisenberg and Stoner in 1971 (J. Bacteriol. 108:1135-1140). In this assay, the substrate KAPA is incubated with S-adenosylmethionine (SAM) in the presence of the cofactor pyridoxal 5′-phosphate and cell extract. We measured the amount of DAPA produced in a plate bioassay utilizing an E. coli bioA strain. Streptavidin (8 μg/ml) was added to the assay mix because extracts of many of the strains to be assayed contained significant amounts of biotin and dethiobiotin which fed the E. coli indicator strain used in the bioassay. Contamination by trace amounts of biotin and dethiobiotin was also removed from the KAPA preparation used as substrate by passing the material over an avidin-agarose column. The E. coli bioA109 strain (MEC1) was used to measure DAPA aminotransferase activity in the bioassay. […] Eisenberg's DAPA-sensitive strain was obtained from the E. coli Genetic Stock Center at Yale University.
To determine whether B. subtilis DAPA aminotransferase activity could be stimulated by addition of other amino donors to the reaction mix, various amino donors were screened for their ability to stimulate enzyme activity in vitro. A cell free extract prepared from a B. subtilis strain deleted for the bio operon but containing multiple copies (4-6) of the B. subtilis bioA gene transcribed from a phage SP01-26 promoter with the cassette integrated at the bpr locus, BI611 (Δbio:cat, bpr:[P26bioA]4-6), was dialyzed to remove any endogenous levels of the amino donor and the extract was assayed in the presence of each of the standard amino acids and several other amine compounds. […] In a subsequent experiment, various lysine derivatives and analogs were tested for stimulation of activity (Table 2). […] The structure of (S)-2-aminoethyl-L-cysteine is identical to L-lysine except that the γ carbon has been replaced by a sulfur atom.

[2] = system: B. subtilis strains, PY79, BI282, and BI603; assay: Sensitivity of B. subtilis strains to lysine analogs on minimal medium; assay type: cell-based; conditions: minimal medium with no additive, with threonine, or with DAP plus threonine
Protocol: Three out of the four classical cases of lysine deregulated mutants were isolated by selecting for lysine analog resistance. B. subtilis strains, PY79 (Youngman et al., Plasmid 12:1-9, 1984), BI282, and BI603 were tested for sensitivity to four lysine analogs, on minimal medium with no additive, with threonine, or with DAP plus threonine. The purpose of the additives was to focus the selection on the lysC gene, that encodes the lysine sensitive aspartokinase II. […] All three strains behaved similarly; all were sensitive to AEC in all three media.

[3] = biological target: T2, S. marcescens DAPA aminotransferase (Serratia marcescens, UniProt P36568); assay: DAPA aminotransferase assay of extracts of B. subtilis strains containing S. marcescens bioA; assay type: biochemical; conditions: strains lacking native bioA, with S. marcescens bioA
T2 construct: made in house; host or cells: B. subtilis strain lacking the native bioA gene, carrying S. marcescens bioA; cell extract
T2 sequence (P36568 whole entry): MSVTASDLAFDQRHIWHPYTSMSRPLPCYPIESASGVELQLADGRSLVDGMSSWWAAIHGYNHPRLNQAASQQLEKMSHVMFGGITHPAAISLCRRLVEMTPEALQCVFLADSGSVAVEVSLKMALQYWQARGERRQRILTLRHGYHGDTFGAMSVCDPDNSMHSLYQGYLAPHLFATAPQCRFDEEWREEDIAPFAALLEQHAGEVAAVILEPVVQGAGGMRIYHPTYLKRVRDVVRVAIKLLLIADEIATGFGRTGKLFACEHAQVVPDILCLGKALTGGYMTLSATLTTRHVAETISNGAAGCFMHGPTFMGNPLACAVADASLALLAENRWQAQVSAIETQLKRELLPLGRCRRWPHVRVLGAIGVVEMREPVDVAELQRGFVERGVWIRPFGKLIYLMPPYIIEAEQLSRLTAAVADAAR
Protocol: (§1) The assay for DAPA aminotransferase is described by Eisenberg and Stoner in 1971 (J. Bacteriol. 108:1135-1140). In this assay, the substrate KAPA is incubated with S-adenosylmethionine (SAM) in the presence of the cofactor pyridoxal 5′-phosphate and cell extract. We measured the amount of DAPA produced in a plate bioassay utilizing an E. coli bioA strain. Streptavidin (8 μg/ml) was added to the assay mix because extracts of many of the strains to be assayed contained significant amounts of biotin and dethiobiotin which fed the E. coli indicator strain used in the bioassay. Contamination by trace amounts of biotin and dethiobiotin was also removed from the KAPA preparation used as substrate by passing the material over an avidin-agarose column. The E. coli bioA109 strain (MEC1) was used to measure DAPA aminotransferase activity in the bioassay. This E.coli bioA strain, developed for the assay by Eisenberg, was reported to be many times more sensitive to DAPA than any other bioA mutant. Eisenberg's DAPA-sensitive strain was obtained from the E. coli Genetic Stock Center at Yale University.
(§2) The enzyme reaction was approximately linear with time for at least 60 minutes. […] Enzyme activity was destroyed by boiling the extract, or freezing and thawing, although freezing the extract in the presence of 10% DMSO appeared to stabilize the enzyme. […]

[4] = biological target: T3, E. coli DAPA aminotransferase (Escherichia coli, UniProt P12995); conditions: cited from earlier work; for Km: Stoner and Eisenberg 1975
T3 sequence (P12995 whole entry): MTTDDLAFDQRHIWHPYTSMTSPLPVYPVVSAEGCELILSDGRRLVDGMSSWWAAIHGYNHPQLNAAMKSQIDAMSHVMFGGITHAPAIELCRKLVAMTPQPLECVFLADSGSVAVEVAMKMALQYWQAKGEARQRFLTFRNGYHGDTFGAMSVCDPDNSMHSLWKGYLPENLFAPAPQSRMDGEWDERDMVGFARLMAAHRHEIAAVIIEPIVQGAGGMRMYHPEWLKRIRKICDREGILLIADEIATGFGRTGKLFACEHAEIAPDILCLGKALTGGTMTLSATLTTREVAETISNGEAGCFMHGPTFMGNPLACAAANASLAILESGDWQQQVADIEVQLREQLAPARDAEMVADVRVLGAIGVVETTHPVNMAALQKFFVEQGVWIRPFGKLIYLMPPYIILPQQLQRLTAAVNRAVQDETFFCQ

[5] = biological target: T1, B. subtilis DAPA aminotransferase; assay: DAPA aminotransferase assay of BI282 extract, dependence on SAM; assay type: biochemical
Protocol: as §1
A B. subtilis strain, BI282, engineered to overexpress B. subtilis BioA protein was assayed for DAPA aminotransferase activity: BI282 contains a P15 bio cassette amplified at the bio locus (described in Patent Application 0635572A2). […]

[6] = biological target: T3, E. coli DAPA aminotransferase; assay: DAPA aminotransferase assay of extracts of B. subtilis strains containing E. coli bioA; assay type: biochemical; conditions: strains lacking native bioA, with E. coli bioA
Protocol: as §1, §2

[7] = biological target: T1, B. subtilis DAPA aminotransferase; assay: Kinetic studies of B. subtilis DAPA aminotransferase (crude cell-free extract of BI611); assay type: biochemical; conditions: for Km: crude cell-free extract of BI611
Protocol: as §1
The kinetic properties of B. subtilis DAPA aminotransferase were investigated using a crude cell-free extract prepared from BI611 (Δbio:cat, bpr:[P26bioA]4-6). […] The conversion of substrate to product was approximately 10 to 40% in 20 minutes. […] The pH optimum for the transamination reaction was determined to be pH 8.6. […] The […] enzyme was subject to inhibition by KAPA at levels above 20 μM. […] The enzyme became saturated for lysine at concentrations between 20 and 40 mM.
The substrate inhibition of B. subtilis DAPA aminotransferase by KAPA provides evidence for a double displacement or ping-pong reaction mechanism, as has been shown for E.coli DAPA aminotransferase (Stoner et al., J. Biol. Chem. 250:4037-4043, 1975). KAPA concentration was varied at four different fixed lysine concentrations, and initial velocity data was collected and plotted in a double reciprocal form. […]

N[C@H](CCC[C@H](N)C(=O)O)C(=O)O [diaminopimelic acid]
DAPA aminotransferase specfic activity [1]: 0 nmol/min/mg

(S)-2-aminoethyl-L-cysteine
inhibition of growth [2]: inhibited growth
DAPA aminotransferase specfic activity [1]: 0.48 nmol/min/mg
function as amino donor with the B. subtilis enzyme [1]: function as amino donors
stimulation of DAPA aminotransferase activity [1]: stimulate activity

C[S+](CC[C@H](N)C(=O)O)C[C@H]1O[C@@H](n2cnc3c(N)ncnc32)[C@H](O)[C@@H]1O (stereo partly shown) [SAM, S-adenosylmethionine]
dependence of enzyme activity on presence of SAM [3]: dependent on the presence of exogenous SAM
Km ([4]; purified E. coli enzyme, read-out: Km for SAM): 200 µM
dependence of enzyme activity on presence of SAM [5]: not dependent on the presence of SAM
dependence of enzyme activity on presence of SAM [6]: dependent on the presence of exogenous SAM
function as amino donor with the B. subtilis enzyme [1]: not a significant amino donor

CC(=O)N[C@@H](CCCCN)C(=O)O [Nα-acetyl-L-lysine]
DAPA aminotransferase specfic activity [1]: 0 nmol/min/mg

NCCCC[C@H](N)C(=O)O [L-lysine]
DAPA aminotransferase specfic activity ([1]; listed as L-lysine (>98%)): 0.76 nmol/min/mg
DAPA aminotransferase specfic activity ([1]; listed as L-lysine (>99%)): 0.56 nmol/min/mg
function as amino donor with the B. subtilis enzyme [1]: function as amino donors
stimulation of DAPA aminotransferase activity ([1]; listed as L-lysine hydrochloride): stimulated DAPA aminotransferase activity
stimulation of DAPA aminotransferase activity ([1]; listed as L-lysine(>99% pure)): stimulate activity
Km ([7]; read-out: apparent Km for lysine): 2000 to 25000 µM

lys-gly
DAPA aminotransferase specfic activity [1]: 0 nmol/min/mg

gly-lys
DAPA aminotransferase specfic activity [1]: 0 nmol/min/mg

CC(N)C(=O)CCCCCC(=O)O (stereo not shown) [KAPA, 8-amino-7-ketopelargonic acid]
KAPA level above which enzyme was subject to inhibition ([4]; Eisenberg and Stoner 1971): above 20 μM
Km ([4]; read-out: Km for KAPA): 1.2 µM
Km ([7]; read-out: apparent Km for KAPA): 1 to 5 µM
KAPA concentration above which inhibition of activity was observed ([7]; lysine constant at 19 mM): above 80 μM

NCCCCC(N)C(=O)O (racemic) [DL-lysine (>98%), DL-lysine]
DAPA aminotransferase specfic activity [1]: 0.35 nmol/min/mg

CC(=O)NCCCC[C@H](N)C(=O)O [Nε-acetyl-L-lysine]
DAPA aminotransferase specfic activity [1]: 0 nmol/min/mg

NCCCC[C@@H](N)C(=O)O [D-lysine]
DAPA aminotransferase specfic activity [1]: 0.19 nmol/min/mg
function as amino donor with the B. subtilis enzyme [1]: function as amino donors

CNCCCC[C@H](N)C(=O)O [Nε-methyl-L-lysine]
DAPA aminotransferase specfic activity [1]: 0 nmol/min/mg
